Converted amounts (≈) assume the structure as drawn. “And” between values parts separate entries of the source, which are not always exact repeats. Identical values can stand only once.
Columns and labels:
E. coli topoisomerase IV [1] = target: T1, E. coli topoisomerase IV (Escherichia coli, UniProt P0AFI2+P20083); assay: biochemical; format: biochemical
T1 construct: purchased Inspiralis

Human topo IIß = Human topo IIß (Homo sapiens, UniProt Q02880); assay: Human topo IIß decatenation assay; format: biochemical
Method: Human topo IIα (0.9 nM) and topo IIß (2.2 nM) decatenation assays were performed following the same protocol used for bacterial topoisomerase IV decatenation assays. The assay buffer was made of 50 mM Tris. HCl (pH 7.5), 125 mM NaCl, 10 mM MgCl2, 5 mM DTT, and 100 μg/mL albumin.

[2] = target: P. aeruginosa topoisomerase IV (Pseudomonas aeruginosa, UniProt Q9HUJ8+Q9HUK1); assay: Topoisomerase IV decatenation assay, P. aeruginosa; format: biochemical; design: Topo IV decatenation inhibition response: unit not given here
Method: Topoisomerase IV decatenation reactions were performed using 2.5 nM E. coli enzyme and 60 ng kinetoplast DNA (kDNA) in an assay buffer containing 50 mM HEPES-KOH (pH 7.6), 100 mM potassium glutamate, 10 mM magnesium acetate, 10 mM DTT, 1 mM ATP, and 50 μg/mL albumin. Assays with P. aeruginosa topoisomerase IV (3 nM) were conducted in a similar buffer but with 50 mM HEPES-KOH (pH 7.9), 100 mM potassium glutamate, 6 mM magnesium acetate, 6 mM DTT, 1 mM ATP, 2 mM spermidine, and 50 μg/mL albumin. For S. aureus topoisomerase IV assay, the reactions contained 4 nM enzyme in an assay buffer composed of 50 mM Tris-HCl (pH 7.5), 5 mM MgCl₂, 5 mM DTT, 1.5 mM ATP, 350 mM potassium glutamate, and 0.05 mg/mL albumin. The procedures followed were consistent with those used in the supercoiling assays. Decatenated minicircles were resolved on 0.8% agarose gels, while the kDNA substrate remained in the wells. Gels were stained with 0.8 μg/mL ethidium bromide solution for 10 min, followed by destaining. DNA bands were visualized using a gel documentation system, and compound inhibition analysis was carried out using the same procedures described for the supercoiling assays.

[3] = target: E. coli GyrA M120K mutant gyrase (Escherichia coli, UniProt P0AES4+P0AES6, M120K); assay: biochemical; format: biochemical; settings: for Gyrase supercoiling inhibition response: GyrA M120K gyrase
E. coli topoisomerase IV [4] = target: T1, E. coli topoisomerase IV; assay: Topoisomerase IV cleavage-complex assay; format: biochemical
Method: Reactions were stopped by adding 3.8 μL of a stop solution containing 0.8 μL Proteinase K (20 mg/mL) and 3 μL SDS (2%), followed by incubation at 37 °C for 60 min. Afterward, 4 μL of STEB loading buffer was added, and samples were run on pre-stained 0.8% agarose gels containing 0.4 μg/mL ethidium bromide. […] The % nicked and linear DNA formed with varying compound concentrations was plotted for comparison.

[5] = test system: E. coli MG1655 GyrA D82N, ParC WT; assay: microbe, parasite or virus in culture; format: cell-based; settings: Escherichia coli
[6] = test system: E. coli MG1655 GyrA WT, ParC R119K; assay: microbe, parasite or virus in culture; format: cell-based; settings: Escherichia coli
K. pneumoniae ATCC 13883 = assay: MIC broth microdilution; format: cell-based; settings: Klebsiella pneumoniae, ATCC13883
E. coli ATCC 25922 [7] = assay: MIC broth microdilution; format: cell-based; settings: Escherichia coli, ATCC25922
K. pneumoniae KPNIH1 = assay: microbe, parasite or virus in culture; format: cell-based; settings: Klebsiella pneumoniae
P. aeruginosa ATCC 27853 = settings: 4× MIC
Method: Spontaneous resistance frequencies to BWC0977 were evaluated in E. coli ATCC 25922, P. aeruginosa ATCC 27853, and A. baumannii ATCC 19606. Mid-logarithmic phase cultures (~10^9 CFU/mL) were plated onto Luria-Bertani agar containing BWC0977 at 4×, 8×, and 16× the respective MICs. Plates were incubated at 37 °C for 24–36 h, and resistance frequencies were estimated by counting colony-forming units (CFUs) on the drug-containing plates. MICs of the isolated colonies were determined, and the gyrA, gyrB, parC, and parE genes were sequenced to assess for target-site mutations.

E. coli tolC strain = assay: MIC, efflux-deficient strain; format: cell-based
E. coli ATCC 25922 [8] = assay: Resistant mutant generation by serial passage method; format: cell-based; settings: Escherichia coli, read-out: MIC, serial passage
E. coli = settings: ref 6 (Hameed P et al., 2024); cited from earlier work
E. coli ATCC 25922 [9] = settings: >4× MIC; cited from earlier work

## Cn1c(=O)ccc2ccc(F)c(CCNC[C@H]3CN(c4cnc5c(n4)NC(=O)CO5)C(=O)O3)c21 [BWC0977]
E. coli topoisomerase IV [1]; E. coli topo IV, compound 0.008 μM, source data Fig 2A, listed as 977, 0.008 µM
  Topo IV decatenation inhibition response: 28.08 and 39.25
E. coli topoisomerase IV [1]; E. coli topo IV, compound 0.008 μM, source data Fig 2A, read-out: Topo IV decatenation inhibition response
  inhibition at 0.008 µM: 30.8%
E. coli topoisomerase IV [1]; E. coli topo IV, compound 0.074 μM, source data Fig 2A, listed as 977, 0.074 µM
  Topo IV decatenation inhibition response: 89.53 and 79.92
E. coli topoisomerase IV [1]; E. coli topo IV, compound 0.074 μM, source data Fig 2A, read-out: Topo IV decatenation inhibition response
  inhibition at 0.074 µM: 75.6%
E. coli topoisomerase IV [1]; E. coli topo IV, compound 0.222 μM, source data Fig 2A, listed as 977, 0.222 µM
  Topo IV decatenation inhibition response: 92.32 and 88.38
E. coli topoisomerase IV [1]; E. coli topo IV, compound 0.222 μM, source data Fig 2A, read-out: Topo IV decatenation inhibition response
  inhibition at 0.222 µM: 83.4%
E. coli topoisomerase IV [1]; E. coli topo IV, compound 2 μM, source data Fig 2A, listed as 977, 2 µM
  Topo IV decatenation inhibition response: 94.13 and 90.30
E. coli topoisomerase IV [1]; E. coli topo IV, compound 2 μM, source data Fig 2A, read-out: Topo IV decatenation inhibition response
  inhibition at 2 µM: 84.8%
E. coli topoisomerase IV [1]; E. coli topoisomerase IV
  higher inhibition potency compared to compound 17a: ~ 20 fold
E. coli topoisomerase IV [1]; read-out: IC50 E. coli topo IV decatenation
  IC50: 13 ± 4 nM
Human topo IIß
  IC50: > 200000 nM
[2]
  IC50: 77 nM
[2]; P. aeruginosa topo IV, compound 0.0114 μM, source data Fig 2B, listed as 977, 0.0114 µM
  Topo IV decatenation inhibition response: 7.06
[2]; P. aeruginosa topo IV, compound 0.0114 μM, source data Fig 2B, read-out: Topo IV decatenation inhibition response
  inhibition at 0.0114 µM: 10.9%
[2]; P. aeruginosa topo IV, compound 0.0343 μM, source data Fig 2B, listed as 977, 0.0343 µM
  Topo IV decatenation inhibition response: 24.14
[2]; P. aeruginosa topo IV, compound 0.0343 μM, source data Fig 2B, read-out: Topo IV decatenation inhibition response
  inhibition at 0.0343 µM: 18.9%
[2]; P. aeruginosa topo IV, compound 0.1029 μM, source data Fig 2B, listed as 977, 0.1029 µM
  Topo IV decatenation inhibition response: 63.17
[2]; P. aeruginosa topo IV, compound 0.1029 μM, source data Fig 2B, read-out: Topo IV decatenation inhibition response
  inhibition at 0.1029 µM: 61.6%
[2]; P. aeruginosa topo IV, compound 0.3086 μM, source data Fig 2B, listed as 977, 0.3086 µM
  Topo IV decatenation inhibition response: 85.90
[2]; P. aeruginosa topo IV, compound 0.3086 μM, source data Fig 2B, read-out: Topo IV decatenation inhibition response
  inhibition at 0.3086 µM: 88.3%
[2]; P. aeruginosa topo IV, compound 0.9259 μM, source data Fig 2B, listed as 977, 0.9259 µM
  Topo IV decatenation inhibition response: 91.28
[2]; P. aeruginosa topo IV, compound 0.9259 μM, source data Fig 2B, read-out: Topo IV decatenation inhibition response
  inhibition at 0.9259 µM: 91.1%
[2]; P. aeruginosa topo IV, compound 2.7778 μM, source data Fig 2B, listed as 977, 2.7778 µM
  Topo IV decatenation inhibition response: 91.48
[2]; P. aeruginosa topo IV, compound 2.7778 μM, source data Fig 2B, read-out: Topo IV decatenation inhibition response
  inhibition at 2.7778 µM: 94.5%
[2]; P. aeruginosa topo IV, compound 8.3333 μM, source data Fig 2B, listed as 977, 8.3333 µM
  Topo IV decatenation inhibition response: 92.85
[2]; P. aeruginosa topo IV, compound 8.3333 μM, source data Fig 2B, read-out: Topo IV decatenation inhibition response
  inhibition at 8.3333 µM: 97.1%
[2]; P. aeruginosa topo IV, compound 25 μM, source data Fig 2B, listed as 977, 25 µM
  Topo IV decatenation inhibition response: 94.54
[2]; P. aeruginosa topo IV, compound 25 μM, source data Fig 2B, read-out: Topo IV decatenation inhibition response
  inhibition at 25 µM: 99.2%
[3]; Fig. 6, read-out: IC50 M120K gyrase supercoiling
  IC50: 116000 nM
[3]; compound 4.444 µM, source data Fig 6A/6B, 4.444 µM
  Gyrase supercoiling inhibition response: 22.36 and 14.93
[3]; compound 13.333 µM, source data Fig 6A/6B, 13.333 µM
  Gyrase supercoiling inhibition response: 30.98 and 24.28
[3]; compound 40 µM, source data Fig 6A/6B, 40 µM
  Gyrase supercoiling inhibition response: 42.55 and 34.32
[3]; compound 120 µM, source data Fig 6A/6B, 120 µM
  Gyrase supercoiling inhibition response: 58.34 and 49.21
[3]; GyrA M120K vs WT
  reduction in inhibition potency compared to wildtype gyrase: > 500 fold
[3]; read-out: Gyrase supercoiling inhibition response, GyrA M120K gyrase, compound 4.444 µM, source data Fig 6A/6B
  inhibition at 4.444 µM: 20.2%
[3]; read-out: Gyrase supercoiling inhibition response, GyrA M120K gyrase, compound 13.333 µM, source data Fig 6A/6B
  inhibition at 13.333 µM: 27.2%
[3]; read-out: Gyrase supercoiling inhibition response, GyrA M120K gyrase, compound 40 µM, source data Fig 6A/6B
  inhibition at 40 µM: 34.7%
[3]; read-out: Gyrase supercoiling inhibition response, GyrA M120K gyrase, compound 120 µM, source data Fig 6A/6B
  inhibition at 120 µM: 56.3%
E. coli topoisomerase IV [4]
  type of DNA breaks induced: single-strand DNA breaks
[5]
  MIC: 0.08 µg/mL (≈ 0.171 µM)
[6]
  MIC: 0.026 µg/mL (≈ 0.0555 µM)
K. pneumoniae ATCC 13883
  MIC: 0.06 µg/mL (≈ 0.128 µM)
E. coli ATCC 25922 [7]
  MIC: 0.06 µg/mL (≈ 0.128 µM)
K. pneumoniae KPNIH1
  MIC: 1 µg/mL (≈ 2.13 µM)
P. aeruginosa ATCC 27853
  resistance frequency: less than 1 × 10^−9
E. coli tolC strain
  difference in MICs between tolC strain and wild-type strain: 10 fold
E. coli tolC strain; Escherichia coli
  MIC: 0.001 µg/mL (≈ 0.00213 µM)
E. coli ATCC 25922 [8]; ATCC25922, 24 h
  MIC: 0.015 µg/mL (≈ 0.032 µM)
E. coli ATCC 25922 [8]; ATCC25922, 288 h
  MIC: 0.125 µg/mL (≈ 0.267 µM)
E. coli
  MIC90 against diverse global isolates: 0.5 µg/mL (≈ 1.07 µM)
E. coli ATCC 25922 [9]
  resistant colonies on exposure: no resistant colonies

— paper PMC12647645, “Structural interactions of BWC0977 with Klebsiella pneumoniae topoisomerase IV and biochemical basis of its broad-spectrum activity” (Communications Biology, 2025)
